Data reported in patent publication US11028090B2 (Dong Wha Pharm. Co., Ltd., priority 2017, dated 2021).
pIC50: −log10 of the molar value. Where a name gives a salt, the structure may show the parent alone. Read-outs that look alike come from different tables or passages of the source.

Key:
[1] = system: acute myelogenous leukemia cells (MV-4-11 cells); experiment: Cytotoxicity to acute myelogenous leukemia cells (MV-4-11 cells), CCK-8; details: Homo sapiens, MV4-11, 72 h
[2] = target: BRD4 (BD1+BD2) bromodomain (Homo sapiens (Human), UniProt O60885); experiment: BRD4 binding inhibition (AlphaScreen, GST-BRD4 vs tetraacetylated histone H4 peptide)
Outline: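 AlphaScreen read after 30 min dark incubation at room temperature with glutathione acceptor/streptavidin donor beads (10 μg/ml each). The beads were added to compound plus 100 nM biotin-H4 (K5,8,12,16-acetyl) peptide and 100 nM GST-BRD4 BD1+BD2 in pH 7.4 HEPES/Tween/BSA/DTT buffer.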

[3] = read-out: MV-4-11 Cytotoxicity IC50
[4] = GST-BRD4 (BD1+BD2) vs biotinylated acetyl-histone H4 peptide, AlphaScreen, read-out: BRD4 IC50
[5] = GST-BRD4 (BD1+BD2) / biotinylated acetyl-histone H4 (Lys5,8,12,16) peptide, read-out: IC50, BRD4 binding inhibition
[6] = read-out: IC50, cytotoxicity against acute myelogenous leukemia cells

SMILES | pIC50 [1, 3] | pIC50 [2, 4] | pIC50 [2, 5] | pIC50 [1, 6]
Cc1nnc2c(NCCCCNC(=O)[C@H](O)C(C)C)nc3cc(N4C[C@@H](C)O[C@@H](C)C4)ccc3n12 [Example 512, N-{4-[7-(2,6-dimethyl-morpholine-4-yl)-1-methyl-[1,2,4]triazolo[4,3-a]quinoxaline-4-ylamino]-butyl}-2-(R)-hydroxy-3-methyl-butyramide] | 6.20 | 7.19 |  | 
Cc1nnc2c(NCCCCNC(=O)[C@@H](NC(=O)OC(C)(C)C)C(C)C)nc3cc(N4C[C@@H](C)O[C@@H](C)C4)ccc3n12 [Example 513, (S)-{2-methyl-1-[4-(1-methyl-7-(2,6-dimethyl-morpholine-4-yl)-[1,2,4]triazolo[4,3-a]quinoxaline-4-ylamino)-butylcarbamoyl]-propyl}-carbamic acid-tert-butylester] | 6.55 | 7.72 | ≥ 7.30 | 
Cc1nnc2c(NCCCCNC(=O)[C@@H](N)C(C)C)nc3cc(N4CC(C)OC(C)C4)ccc3n12 (stereo partly drawn) [Example 514, 2-(S)-amino-N-{4-[7-(2,6-dimethyl-morpholine-4-yl)-1-methyl-[1,2,4]triazolo[4,3-a]quinoxaline-4-ylamino]-butyl}-3-methyl-butyramide hydrochloride] | 6.36 | 7.22 |  | 
Cc1nnc2c(NCCCCNC(=O)[C@@H](NC(=O)OCC(C)C)C(C)C)nc3cc(N4C[C@@H](C)O[C@@H](C)C4)ccc3n12 [Example 515, (S)-(1-{4-[7-(2,6-dimethyl-morpholine-4-yl)-1-methyl-[1,2,4]triazolo[4,3-a]quinoxaline-4-ylamino]-butylcarbamoyl}-2-methyl-propyl)-carbamic acid isobutylester] | 7.05 |  | ≥ 7.30 | ≥ 6.70
CCCOC(=O)N[C@H](C(=O)NCCCCNc1nc2cc(N3C[C@@H](C)O[C@@H](C)C3)ccc2n2c(C)nnc12)C(C)C [Example 516, (S)-(1-{4-[7-(2,6-dimethyl-morpholine-4-yl)-1-methyl-[1,2,4]triazolo[4,3-a]quinoxaline-4-ylamino]-butylcarbamoyl}-2-methyl-propyl)-carbamic acid propylester] | 6.29 |  | ≥ 7.30 | 
Cc1nnc2c(NCCCCNC(=O)[C@@H](NC(=O)[C@@H](F)C(C)C)C(C)C)nc3cc(N4C[C@@H](C)O[C@@H](C)C4)ccc3n12 [Example 517] | 6.63 | 7.42 | ≥ 7.30 | 
Cc1nnc2c(NCCCCNC(=O)[C@@H](NC(=O)C(C)(C)C)C(C)C)nc3cc(N4C[C@@H](C)O[C@@H](C)C4)ccc3n12 [Example 519] | 6.40 | 7.31 | ≥ 7.30 | 
Cc1nnc2c(NCCCCNC(=O)[C@@H](NC(=O)OC(C)C)C(C)C)nc3cc(N4C[C@@H](C)O[C@@H](C)C4)ccc3n12 [Example 520, (S)-(1-{4-[7-(2,6-dimethyl-morpholine-4-yl)-1-methyl-[1,2,4]triazolo[4,3-a]quinoxaline-4-ylamino]-butylcarbamoyl}-2-methyl-propyl)-carbamic acid isopropylester] | 6.76 | 7.62 | ≥ 7.30 | ≥ 6.70
Cc1nnc2c(NCCCCNC(=O)CC(C)C)nc3cc(N4CCc5sccc5C4)ccc3n12 [Example 528, N-{4-[7-(6,7-dihydro-4H-thiano[3,2-c]pyridine-5-yl)-1-methyl-[1,2,4]triazolo[4,3-a]quinoxaline-4-ylamino]-butyl}-3-methyl-butyramide] | 6.69 | 7.82 | ≥ 7.30 | 
Cc1nnc2c(NCCCCNC(=O)[C@@H](F)C(C)C)nc3cc(N4CCc5sccc5C4)ccc3n12 [Example 529, N-{4-[7-(6,7-dihydro-4H-thiano[3,2-c]pyridine-5-yl)-1-methyl-[1,2,4]triazolo[4,3-a]quinoxaline-4-ylamino]-butyl}-2-(S)-fluoro-3-methyl-butyramide] | 6.97 | 7.51 | ≥ 7.30 | ≥ 6.70
Cc1nnc2c(NCCCCNC(=O)CC(C)C)nc3ccc([N+](=O)[O-])cc3n12 [Example 550, 3-methyl-N-[4-(1-methyl-8-nitro-[1,2,4]triazolo[4,3-a]quinoxaline-4-ylamino)-butyl]-butyramide] | 6.80 | 7.68 | ≥ 7.30 | ≥ 6.70
Cc1nnc2c(NCCCCNC(=O)CC(C)C)nc3ccc(N)cc3n12 [Example 551, N-[4-(8-amino-1-methyl-[1,2,4]triazolo[4,3-a]quinoxaline-4-ylamino)-butyl]-3-methyl-butyramide] | 6.87 | 7.92 | ≥ 7.30 | ≥ 6.70
CCCNc1ccc2nc(NCCCCNC(=O)CC(C)C)c3nnc(C)n3c2c1 [Example 552, 3-methyl-N-[4-(1-methyl-8-propylamino-[1,2,4]triazolo[4,3-a]quinoxaline-4-ylamino)-butyl]-butyramide] | 6.80 | 7.68 | ≥ 7.30 | ≥ 6.70
Cc1nnc2c(NCCCCNC(=O)CC(C)C)nc3ccc(NCCCC#N)cc3n12 [Example 553, N-{4-[8-(3-cyano-propylamino)-1-methyl-[1,2,4]triazolo[4,3-a]quinoxaline-4-ylamino]-butyl}-3-methyl-butyramide] | 6.76 | 7.62 | ≥ 7.30 | ≥ 6.70
COc1cc2nc(NCCCCNC(=O)CC(C)C)c3nnc(C)n3c2cc1[N+](=O)[O-] [Example 555, N-[4-(7-methoxy-1-methyl-8-nitro-[1,2,4]triazolo[4,3-a]quinoxaline-4-ylamino)-butyl]-3-methyl-butyramide] | 6.93 | 7.19 |  | ≥ 6.70
COc1cc2nc(NCCCCNC(=O)CC(C)C)c3nnc(C)n3c2cc1N [Example 556, N-[4-(8-amino-7-methoxy-1-methyl-[1,2,4]triazolo[4,3-a]quinoxaline-4-ylamino)-butyl]-3-methyl-butyramide] | 9.00 | 7.51 | ≥ 7.30 | ≥ 6.70
CNc1cc2c(cc1OC)nc(NCCCCNC(=O)CC(C)C)c1nnc(C)n12 [Example 557, N-[4-(7-methoxy-1-methyl-8-methylamino-[1,2,4]triazolo[4,3-a]quinoxaline-4-ylamino)-butyl]-3-methyl-butyramide] | 6.55 | 7.89 | ≥ 7.30 | 
COc1cc2nc(NCCCCNC(=O)CC(C)C)c3nnc(C)n3c2cc1NO [Example 558, N-[4-(8-hydroxyamino-7-methoxy-1-methyl-[1,2,4]triazolo[4,3-a]quinoxaline-4-ylamino)-butyl]-3-methyl-butyramide] | 7.06 | 7.24 |  | ≥ 6.70
CCCNc1cc2c(cc1OC)nc(NCCCCNC(=O)CC(C)C)c1nnc(C)n12 [Example 559, N-[4-(7-methoxy-1-methyl-8-propylamino-[1,2,4]triazolo[4,3-a]quinoxaline-4-ylamino)-butyl]-3-methyl-butyramide] | 6.85 | 8.15 | ≥ 8.00 | ≥ 6.70
C#CCNc1cc2c(cc1OC)nc(NCCCCNC(=O)CC(C)C)c1nnc(C)n12 [Example 560] | 7.15 | 7.43 | ≥ 7.30 | ≥ 6.70
COc1cc2nc(NCCCCNC(=O)CC(C)C)c3nnc(C)n3c2cc1NC(=O)CC(C)C [Example 562, N-{4-[7-methoxy-1-methyl-8-(3-methyl-butyrylamino)-[1,2,4]triazolo[4,3-a]quinoxaline-4-ylamino]-butyl}-3-methyl-butyramide] | 6.43 | 7.49 | ≥ 7.30 | 
COc1cc2nc(NCCCCNC(=O)CC(C)C)c3nnc(C)n3c2cc1NC(=O)CC(C)(C)C [Example 563] | 6.25 |  | ≥ 7.30 | 
COc1cc2nc(NCCCCNC(=O)CC(C)C)c3nnc(C)n3c2cc1NC(=O)Cc1ccccc1 [Example 564] | 6.21 | 8.05 | ≥ 8.00 | 
COc1cc2nc(NCCCCNC(=O)CC(C)C)c3nnc(C)n3c2cc1NS(=O)(=O)CC(C)C [Example 567] | 6.70 | 7.89 | ≥ 7.30 | ≥ 6.70
COc1cc2nc(NCCCCNC(=O)CC(C)C)c3nnc(C)n3c2cc1NC(=O)Nc1ccccc1 [Example 568, N-{4-[7-methoxy-1-methyl-8-(3-phenyl-ureido)-[1,2,4]triazolo[4,3-a]quinoxaline-4-ylamino]-butyl}-3-methyl-butyramide] | 6.18 | 7.55 | ≥ 7.30 | 
COc1cc2nc(NCCCCNC(=O)CC(C)C)c3nnc(C)n3c2cc1NC(=S)NC(C)C [Example 569, N-{4-[8-(3-isopropyl-thioureido)-7-methoxy-1-methyl-[1,2,4]triazolo[4,3-a]quinoxaline-4-ylamino]-butyl}-3-methyl-butyramide] | 6.63 | 7.96 | ≥ 7.30 | 
COc1cc2nc(NCCCCNC(=O)CC(C)C)c3nnc(C)n3c2cc1F [Example 574, N-[4-(8-fluoro-7-methoxy-1-methyl-[1,2,4]triazolo[4,3-a]quinoxaline-4-ylamino)-butyl]-3-methyl-butyramide] | 7.35 | 7.40 | ≥ 7.30 | ≥ 6.70
COc1cc2c(cc1F)nc(NCCCCNC(=O)CC(C)C)c1nnc(C)n12 [Example 575, N-[4-(7-fluoro-8-methoxy-1-methyl-[1,2,4]triazolo[4,3-a]quinoxaline-4-ylamino)-butyl]-3-methyl-butyramide] | 6.47 | 7.29 |  | 
